The source of these data is patent US8058243B2, “Method for treating a brain cancer with ifenprodil” (HSC Research and Development Limited Partnership, priority 2006, dated 2011).

Where a name gives a salt, the structure may show the parent alone. Read-outs that look alike come from different tables or passages of the source.

The test system of the assay is murine neural precursor cells (neurosphere cultures). The assay is described as follows: HTS of LOPAC library against secondary neurosphere cultures, MTT proliferation assay at 3 μM, day 7 (z score, P value). The class given is cell-based, mouse. (In general: Formazan colour is commonly taken as a measure of viable cells.)
Where [1] appears, read: LOPAC library screen, 3 μM, MTT, secondary neurosphere cultures, day 7.
[2] abbreviates: primary LOPAC screen, 3 μM, MTT, neurosphere proliferation.
The mark [3] stands for this setting: LOPAC library screen, 3 μM, MTT, neurosphere cultures.
Setting [4] is: yes/no: significantly inhibited neurosphere proliferation in the primary screen.
Where [5] appears, read: yes/no: significantly inhibited neurosphere proliferation (P<0.01) in the primary screen.
The mark [6] stands for this setting: LOPAC library screen at 3 μM, secondary neurosphere cultures, MTT.
Setting [7] is: LOPAC primary screen, neurosphere MTT proliferation, 3 μM, day 7.
Setting [8] is: yes = significantly inhibited neurosphere proliferation (P<0.01) in the primary screen.
Setting [9] is: yes/no: significantly inhibited neurosphere proliferation in primary screen.
Setting [10] is: LOPAC screen, neurosphere MTT proliferation, 3 μM, day 7.
[11] abbreviates: yes/no: significantly inhibited neurosphere proliferation (P<0.01) in primary screen.

For the compound `Cn1c(=O)c2[nH]cnc2n(C)c1=O.Cn1c(=O)c2[nH]cnc2n(C)c1=O.NCCN` [Aminophylline ethylenediamine], the Activity entry was “no”. For the same compound, the “Z Score” value under setting [1] is −1.537. Under setting [2], this compound yielded a Z score of −1.537.
With `CCCCc1oc2ccccc2c1C(=O)c1cc(I)c(OCCN(CC)CC)c(I)c1` [Amiodarone hydrochloride], under setting [3], the “Z Score” value is 0.9292. For the same compound, the Z score under setting [2] is recorded as 0.929. The Activity result under setting [4] is “no”.
On to `CN(C)CCCO[C@@H]1[C@H]2OC(C)(C)O[C@H]2O[C@@H]1[C@H](O)CO` [Amiprilose hydrochloride], for which, for the setting “168 h, 3 µM”, the “Z Score” value is given as −0.7783 and the Z score is −0.778. For the same compound, the Activity result under setting [4] is given as “no”.
In the case of `CN(C)CCC=C1c2ccccc2CCc2ccccc21` [Amitriptyline hydrochloride], where the note is “168 h, 3 µM”, the “Z Score” value was found to be 0.7066 and the Z score turned out to be 0.707. Besides, under setting [5], the Activity result is given as “no”.
For `N.S=C(S)N1CCCC1` [Ammonium pyrrolidinedithiocarbamate], the Activity result is recorded as “no”. In addition, under setting [6], the “Z Score” value is recorded as −0.4168. Moreover, the Z score under setting [7] was −0.417.
As for `Clc1ccc2c(c1)C(N1CCNCC1)=Nc1ccccc1O2` [Amoxapine], where the note is “168 h, 3 µM”, the “Z Score” value is given as −1.041 and the Z score is on record as −1.041. The Activity entry under setting [4] is “no”.
As to `CCNC(=O)N1CCN(CCCC(c2ccc(F)cc2)c2ccc(F)cc2)CC1` [Amperozide hydrochloride], where the note is “168 h, 3 µM”, the “Z Score” value is recorded as −0.4126 and the Z score was −0.413. The Activity result under setting [8] is “no”.
In the case of `COc1cc(NS(C)(=O)=O)ccc1Nc1c2ccccc2nc2ccccc12` [Amsacrine hydrochloride], the “Z Score” value under setting [1] is −11.27. Under setting [7], this compound registered a Z score of −11.274. Also, under setting [8], the Activity entry is “yes”.
Taken in the same sequence, the figures for `N=c1ccn2c(n1)O[C@H]1[C@H](O)[C@@H](CO)O[C@H]12` [Ancitabine hydrochloride] were −9.951, −9.951 and “yes”.
Regarding `C[C@]12CC[C@@H](O)C[C@@H]1CC[C@@H]1[C@@H]2CC[C@]2(C)C(=O)CC[C@@H]12` [Androsterone], the Activity entry is on record as “no”, the “Z Score” value turned out to be 1.947 and the Z score stood at 1.947.
`COc1ccc(C(=O)N2CCCC2=O)cc1` [Aniracetam]: the “Z Score” value under setting [1] is on record as −1.355. Under setting [2], this compound returned a Z score of −1.355. Under setting [4], the Activity result was “no”.
Consider `Cl.c1ccc(CN(CC2=NCCN2)c2ccccc2)cc1` [Antozoline hydrochloride], for which the “Z Score” value is 0.4854. This compound displayed a Z score under setting [2] of 0.485. Besides, under setting [4], the Activity result is listed as “no”.
As to `O=c1cc(-c2ccc(O)cc2)oc2cc(O)cc(O)c12` [Apigenin], where the note is “168 h, 3 µM”, the “Z Score” value is on record as 1.824 and the Z score was 1.824. Also, the Activity result under setting [4] is “no”.
Consider `NC(N)=NCCCCN=C(N)N` [Arcaine sulfate], for which, under setting [6], the “Z Score” value is −0.3299. Besides, under setting [7], the Z score is recorded as −0.330. Besides, the Activity result under setting [9] is on record as “no”.
Turning to `C#CCOC(=O)C1=CCCN(C)C1` [Arecaidine propargyl ester hydrobromide], the “Z Score” value is −9.931. Besides, under setting [7], the Z score is recorded as −9.931. The Activity result under setting [5] was “yes”.
On to `COC(=O)C1=CCCN(C)C1` [Arecoline hydrobromide], for which the Activity entry is “no”, the “Z Score” value is −0.111 and the Z score was −0.111.
On to `CC1=C(/C=C/C(C)=C/C=C/C(C)=C/C=C/C=C(C)/C=C/C=C(C)/C=C/C2=C(C)C(=O)[C@@H](O)CC2(C)C)C(C)(C)C[C@H](O)C1=O` [Astaxanthin], for which, for the setting “168 h, 3 µM”, the “Z Score” value was 1.571 and the Z score is 1.571. Moreover, under setting [5], the Activity entry is recorded as “no”.
Regarding `C[N+]1(C)[C@@H]2CC[C@H]1C[C@@H](OC(=O)C(CO)c1ccccc1)C2` (stereo partly shown) [Atropine methyl bromide], under setting [6], the “Z Score” value was −0.8716. The Z score under setting [7] is listed as −0.872. The Activity result under setting [8] is listed as “no”.
Consider `C[N+]1(C)[C@@H]2CC[C@H]1C[C@@H](OC(=O)C(CO)c1ccccc1)C2` (stereo partly shown) [Atropine methyl nitrate], for which the “Z Score” value under setting [3] is on record as 1.292. Further, under setting [7], the Z score turned out to be 1.292. Under setting [9], the Activity result was “no”.
For the compound `CN1[C@@H]2CC[C@H]1C[C@@H](OC(=O)C(CO)c1ccccc1)C2` (stereo partly shown) [Atropine sulfate], the Activity result is “no”, the “Z Score” value worked out at 1.244 and the Z score stood at 1.244.
As to `O=C(O)C1=CC(=C(c2ccc(O)c(C(=O)O)c2)c2ccc(O)c(C(=O)O)c2)C=CC1=O` [Aurintricarboxylic acid], under “168 h, 3 µM”, the “Z Score” value turned out to be 0.5709 and the Z score was found to be 0.571.
As for `Cn1cnc([N+](=O)[O-])c1Sc1ncnc2nc[nH]c12` [Azathioprine], the “Z Score” value under setting [1] is −7.913. Besides, under setting [7], the Z score is −7.913. Moreover, under setting [8], the Activity result is “yes”.
As for `O=C(O)CCCCCCCC(=O)O` [Azelaic acid], the “Z Score” value under setting [3] stood at 0.1057. Under setting [7], this compound had a Z score of 0.106. Further, the Activity entry under setting [9] was “no”.
Regarding `CCN1CCc2nc(N)oc2CC1.Cl.Cl` [B-HT 933 dihydrochloride], the “Z Score” value is −1.28. The Z score under setting [10] was −1.280. Moreover, the Activity result under setting [11] was “no”.
`COc1ccccc1N1CCN(CCN2C(=O)CC3(CCCC3)CC2=O)CC1` [BMY 7378 dihydrochloride]: under setting [6], the “Z Score” value is listed as −0.6588. Moreover, the Z score under setting [10] is given as −0.659. For the same compound, the Activity entry under setting [11] is recorded as “no”.
With `COc1ccccc1N1CCN(CCCCNC(=O)c2ccc3ccccc3c2)CC1` [BP 897], where the note is “168 h, 3 µM”, the “Z Score” value is −1.715 and the Z score is listed as −1.715. The Activity result under setting [11] is listed as “no”.
For `OC(CN1CCN(c2cccc(Cl)c2)CC1)C(c1ccccc1)c1ccccc1` (stereo not shown) [BRL 15572], the “Z Score” value was determined as 0.3117. Under setting [7], this compound gave a Z score of 0.312. Also, the Activity entry under setting [5] is “no”.
Regarding `C[C@H](Cc1ccc(OCC(=O)[O-])cc1)NC[C@H](O)c1cccc(Cl)c1.[Na+]` [BRL 37344 sodium], the “Z Score” value is recorded as −1.725. Moreover, under setting [10], the Z score was −1.725. The Activity result under setting [11] was “no”.
Regarding `Cl.O=C(Cc1ccc(Cl)c(Cl)c1)N1CCCCC1CN1CCCC1` (stereo not shown) [BRL 52537 hydrochloride], the “Z Score” value was −2.761. Moreover, the Z score under setting [7] was −2.761. Moreover, the Activity entry under setting [5] is reported as “yes”.
Regarding `CN1CCC(c2c[nH]c3ccc(O)cc23)CC1.O=C(O)/C=C\C(=O)O` [BRL 54443 maleate], the “Z Score” value was determined as 0.3378. Under setting [10], this compound displayed a Z score of 0.338. Also, under setting [11], the Activity entry is listed as “no”.
For the compound `Cl.c1ccc2sc(C3(N4CCCCC4)CCCCC3)cc2c1` [BTCP hydrochloride], the “Z Score” value is listed as 0.8361. Under setting [7], this compound registered a Z score of 0.836. For the same compound, the Activity entry under setting [8] was “no”.
As for `Cl.c1ccc2nc(C3=NCCN3)ccc2c1` [BU224 hydrochloride], the “Z Score” value came to 0.4045. Besides, the Z score under setting [10] worked out at 0.404. In addition, under setting [11], the Activity result is recorded as “no”.
Turning to `S=C=Nc1ccc2oc(C3=NCCN3)cc2c1` [BU99006], the “Z Score” value is 1.182. The compound also showed a Z score under setting [7] of 1.182. For the same compound, the Activity result under setting [11] is given as “no”.
Turning to `O=C(O)CCCCCCC1C(=O)NC(=O)N1CCC(O)C1CCCCC1` (stereo not shown) [BW 245C], the “Z Score” value was determined as 1.036. This compound came in with a Z score under setting [7] of 1.036. Further, the Activity result under setting [9] was “no”.
`C=CC[N+](C)(C)c1ccc(CCC(=O)CCc2ccc([N+](C)(C)CC=C)cc2)cc1.[Br-].[Br-]` [BW 284c51]: the “Z Score” value is listed as −0.4017. Under setting [2], this compound gave a Z score of −0.402. In addition, under setting [4], the Activity entry is given as “no”.
Turning to `CC(N)Cc1c[nH]c2ccc(OCc3cccs3)cc12` (stereo not shown) [BW 723C86], the “Z Score” value came out at 0.7247. The compound further gave a Z score under setting [10] of 0.725. Besides, under setting [11], the Activity entry is “no”.
Taken in the same sequence, the figures for `CC(/C=C/c1cccc(Oc2ccc(F)cc2)c1)N(O)C(N)=O` (stereo not shown) [BWB70C] were −0.8932, −0.893 and “no”.
Taken in the same sequence, the figures for `CC(C)(C)c1ccc(S(=O)(=O)/C=C/C#N)cc1` [Bay 11-7085] were 2.18, 2.180 and “no”.
Take `C[C@H]1C[C@H]2[C@@H]3CCC4=CC(=O)C=C[C@]4(C)[C@@]3(Cl)[C@@H](O)C[C@]2(C)[C@@]1(O)C(=O)CO` [Beclomethasone]: the “Z Score” value under setting [3] turned out to be 0.267. Under setting [2], this compound showed a Z score of 0.267. Under setting [4], the Activity result is recorded as “no”.
In the case of `c1ccc2cc(-c3ncc[nH]3)ccc2c1` [Benazoline oxalate], the “Z Score” value under setting [6] is −0.3348. The Z score under setting [10] was −0.335. Moreover, the Activity entry under setting [11] is listed as “no”.
In the case of `COc1cccc(OC)c1OCCNCC1CSc2ccccc2O1` (stereo not shown) [Benoxathian hydrochloride], under “168 h, 3 µM”, the “Z Score” value is given as 0.2653 and the Z score amounted to 0.265. The Activity result under setting [11] is “no”.
For `NC(CO)C(=O)NNCc1ccc(O)c(O)c1O` (stereo not shown) [Benserazide hydrochloride], the Activity entry was “no”. Further, the “Z Score” value under setting [3] is on record as 0.007467. In addition, the Z score under setting [10] came to 0.007.
For the compound `NC(=O)c1ccccc1` [Benzamide], the Z score (168 h, 3 µM) was 0.550. Also, the Activity entry under setting [4] was “no”.
In the case of `Cl.N=C(N)c1ccccc1` [Benzamidine hydrochloride], the Activity result is “no”, the “Z Score” value came to 1.509 and the Z score was found to be 1.509.
